# In patent publication US4376789A, “Surfactants which are polyhydric alcohol partial esters of adducts of maleic anhydride with an unsaturated carboxylic acid” (Grillo-Werke AG, priority 1980, dated 1983):
# Tested on: eye
# Assay: Eye irritation test according to Draize
# Assay type: in vivo
# From the text: The good compatibility of the partial esters according to the invention with skin and mucous membranes is evident from the following investigations. In Table 1, the results of an eye irritation test, according to Draize, for the products of the invention are compared with those of anionic surfactants known to be acceptable dermatologically. It should be noted that substantially higher concentrations of the active products of the invention, than of the prior art compounds, were used in the test.
# The Draize test was performed according to the provisions of the Appraisal of the Safety of Chemicals in Food, Drugs and Cosmetics, published by the United States Food and Drug Administration in 1959. According to this method, appraisal points are assigned as follows: […]
Molecule,"Evaluation points according to Draize score (concentration % active substance: 100 (Examples 1, 3, 4), 65 (Example 2), 50 (Example 5, Na lauryl ether sulfate, undecylic acid semi-ester Na salt), 40 (tallow coco fat alcohol sulfate Na salt), 35 (ammonium lauryl sulfate)) [Points]",Evaluation points according to Draize score (in vivo) [Points],Evaluation range (Draize) (in vivo)
CCCCCCCCCCCCOS(=O)(=O)O.N [Ammonium lauryl sulfate],12.9,–,–
Na lauryl ether sulfate,–,14.2,Slightly irritant
Tallow coco fat alcohol sulfate Na salt,–,24.3,Slightly irritant
CCCCCCCCCCC(=O)NCCOC(=O)CC(C(=O)[O-])S(=O)(=O)O.CCCCCCCCCCC(=O)NCCOC(=O)CC(C(=O)[O-])S(=O)(=O)O.[Na+].[Na+] (stereo not shown) [Na salt of undecylic acid monethanolamide sulfo succinic acid semi-ester],–,19.6,Slightly irritant
